Activity calls are given as the source filed them.
Columns and labels:
[1] = HEK-293T viability loss after treatment – luminescence, T-cell screen hits, cytotoxicity control for TCR NF-kB inhibitor project, dose response (AID 489026); type: functional, cell-based;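 note: cells exposed to compound about 14 hours before the viability readout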
[2] = viability loss in CEM21 cells – cell-based, CellTiter-Glo luminescence, cherry-picked, cytotoxicity control for viral fusion inhibitor project, dose response (AID 652042); type: functional;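 note: potency for signal decrease meaning cytotoxicity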
[3] = molecular target: T1, Cysteine protease ATG4B (Homo sapiens, UniProt Q9Y4P1); type: functional;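 note: Fluorescence-based dose-response confirmation assay measuring inhibition of ATG4B activity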
T1 sequence (Q9Y4P1 whole entry): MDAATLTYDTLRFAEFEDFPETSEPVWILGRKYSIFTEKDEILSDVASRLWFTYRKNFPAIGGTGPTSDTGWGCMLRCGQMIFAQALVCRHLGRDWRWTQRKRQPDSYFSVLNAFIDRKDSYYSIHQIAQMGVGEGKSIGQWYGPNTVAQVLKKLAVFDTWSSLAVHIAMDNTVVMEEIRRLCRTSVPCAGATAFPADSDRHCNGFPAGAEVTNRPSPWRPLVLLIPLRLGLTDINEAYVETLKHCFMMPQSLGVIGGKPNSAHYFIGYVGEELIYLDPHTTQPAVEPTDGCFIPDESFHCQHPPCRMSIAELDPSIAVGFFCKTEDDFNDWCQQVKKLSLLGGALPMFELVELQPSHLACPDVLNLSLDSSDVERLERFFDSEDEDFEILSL

[4] = blockers of HIV-1 ZM109 envelope-driven cell-cell fusion – HeLa effector, CEM target cells, luciferase, cherry-pick, dose response (AID 652058); type: functional, cell-based;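 note: luciferase signal from HIV-1 Env mediated cell-cell fusion of effector and target cells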
[5] = molecular target: T2, Sentrin-specific protease 6 (Homo sapiens, UniProt Q9GZR1); type: functional;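 note: Luminescence-based dose-response confirmatory assay of SENP6 inhibition, following up an ultra-high-throughput screen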
T2 sequence (Q9GZR1 whole entry): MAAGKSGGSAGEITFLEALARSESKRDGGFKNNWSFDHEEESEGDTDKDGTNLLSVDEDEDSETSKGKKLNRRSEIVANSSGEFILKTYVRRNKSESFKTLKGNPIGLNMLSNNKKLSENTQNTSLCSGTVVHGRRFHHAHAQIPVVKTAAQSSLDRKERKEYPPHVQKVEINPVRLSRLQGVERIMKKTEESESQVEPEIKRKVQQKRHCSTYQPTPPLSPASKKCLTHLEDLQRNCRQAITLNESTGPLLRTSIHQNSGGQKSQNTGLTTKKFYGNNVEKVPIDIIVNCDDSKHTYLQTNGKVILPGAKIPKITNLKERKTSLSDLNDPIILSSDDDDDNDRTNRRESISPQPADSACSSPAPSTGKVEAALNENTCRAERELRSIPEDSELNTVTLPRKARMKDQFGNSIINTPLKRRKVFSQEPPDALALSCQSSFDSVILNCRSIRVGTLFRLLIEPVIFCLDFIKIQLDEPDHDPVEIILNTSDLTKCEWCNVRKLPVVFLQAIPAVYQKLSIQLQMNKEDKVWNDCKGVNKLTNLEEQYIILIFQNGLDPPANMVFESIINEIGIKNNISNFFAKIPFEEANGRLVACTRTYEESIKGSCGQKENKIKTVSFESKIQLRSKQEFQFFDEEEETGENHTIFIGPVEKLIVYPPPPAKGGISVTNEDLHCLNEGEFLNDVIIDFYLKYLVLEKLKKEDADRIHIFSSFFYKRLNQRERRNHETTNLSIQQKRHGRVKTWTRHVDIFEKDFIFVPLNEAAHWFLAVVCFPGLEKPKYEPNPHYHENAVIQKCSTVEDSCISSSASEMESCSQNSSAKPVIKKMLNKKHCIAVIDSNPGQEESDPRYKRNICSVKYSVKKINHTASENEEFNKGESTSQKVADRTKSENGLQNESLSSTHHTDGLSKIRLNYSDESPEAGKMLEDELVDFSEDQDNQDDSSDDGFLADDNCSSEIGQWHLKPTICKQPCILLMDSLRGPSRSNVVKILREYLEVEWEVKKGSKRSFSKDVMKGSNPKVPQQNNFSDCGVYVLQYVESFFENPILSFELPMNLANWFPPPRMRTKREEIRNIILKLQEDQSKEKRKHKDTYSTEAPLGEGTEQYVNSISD

[6] = molecular target: T3, Hexokinase HKDC1 (Homo sapiens, UniProt Q2TB90); test: activation of HKDC1 glucose phosphorylation – biochemical, W721R variant, dose response (AID 504730); type: functional
T3 sequence (Q2TB90 whole entry): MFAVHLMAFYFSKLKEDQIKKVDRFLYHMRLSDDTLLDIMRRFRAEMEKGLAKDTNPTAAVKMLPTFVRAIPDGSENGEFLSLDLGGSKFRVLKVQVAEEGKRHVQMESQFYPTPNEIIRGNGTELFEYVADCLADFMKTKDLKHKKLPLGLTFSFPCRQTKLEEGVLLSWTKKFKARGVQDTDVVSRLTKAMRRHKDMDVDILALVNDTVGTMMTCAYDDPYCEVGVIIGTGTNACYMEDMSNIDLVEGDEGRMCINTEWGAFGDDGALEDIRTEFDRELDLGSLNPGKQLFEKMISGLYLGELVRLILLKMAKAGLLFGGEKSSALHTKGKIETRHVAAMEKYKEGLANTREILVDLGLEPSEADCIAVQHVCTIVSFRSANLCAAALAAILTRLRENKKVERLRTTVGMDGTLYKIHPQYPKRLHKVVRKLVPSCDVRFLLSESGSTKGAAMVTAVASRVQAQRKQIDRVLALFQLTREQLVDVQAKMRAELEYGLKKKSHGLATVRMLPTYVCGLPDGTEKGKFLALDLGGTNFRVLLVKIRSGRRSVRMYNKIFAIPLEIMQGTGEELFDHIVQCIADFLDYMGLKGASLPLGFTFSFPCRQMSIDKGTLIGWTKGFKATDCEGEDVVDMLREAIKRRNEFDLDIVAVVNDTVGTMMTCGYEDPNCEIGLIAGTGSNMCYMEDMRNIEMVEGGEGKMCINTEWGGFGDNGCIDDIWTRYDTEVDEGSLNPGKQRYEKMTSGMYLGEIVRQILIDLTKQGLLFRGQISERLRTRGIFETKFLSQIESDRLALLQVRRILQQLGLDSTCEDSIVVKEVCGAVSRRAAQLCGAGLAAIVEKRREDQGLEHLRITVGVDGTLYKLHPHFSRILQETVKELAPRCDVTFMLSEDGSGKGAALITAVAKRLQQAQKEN

[7] = molecular target: Peroxisome proliferator-activated receptor gamma/Nuclear receptor coactivator 3 (Homo sapiens, UniProt P37231); type: functional;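 note: agonist potency for raising coactivator recruitment to the receptor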
Chain of Peroxisome proliferator-activated receptor gamma/Nuclear receptor coactivator 3 (P37231 whole entry): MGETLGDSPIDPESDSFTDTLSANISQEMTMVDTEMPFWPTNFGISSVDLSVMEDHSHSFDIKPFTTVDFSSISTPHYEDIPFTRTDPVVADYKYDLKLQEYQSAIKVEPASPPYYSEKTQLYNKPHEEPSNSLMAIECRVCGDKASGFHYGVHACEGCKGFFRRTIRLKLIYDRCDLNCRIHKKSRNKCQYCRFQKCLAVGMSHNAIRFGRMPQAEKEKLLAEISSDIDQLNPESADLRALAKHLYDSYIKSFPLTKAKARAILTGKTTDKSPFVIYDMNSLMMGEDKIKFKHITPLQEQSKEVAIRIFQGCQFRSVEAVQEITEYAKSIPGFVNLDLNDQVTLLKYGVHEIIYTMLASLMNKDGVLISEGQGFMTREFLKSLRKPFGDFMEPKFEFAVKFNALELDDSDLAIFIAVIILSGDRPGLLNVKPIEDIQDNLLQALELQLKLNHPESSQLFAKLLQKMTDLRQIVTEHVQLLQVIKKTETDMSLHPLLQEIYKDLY
Chain of Peroxisome proliferator-activated receptor gamma/Nuclear receptor coactivator 3 (Q9Y6Q9 whole entry, further chain): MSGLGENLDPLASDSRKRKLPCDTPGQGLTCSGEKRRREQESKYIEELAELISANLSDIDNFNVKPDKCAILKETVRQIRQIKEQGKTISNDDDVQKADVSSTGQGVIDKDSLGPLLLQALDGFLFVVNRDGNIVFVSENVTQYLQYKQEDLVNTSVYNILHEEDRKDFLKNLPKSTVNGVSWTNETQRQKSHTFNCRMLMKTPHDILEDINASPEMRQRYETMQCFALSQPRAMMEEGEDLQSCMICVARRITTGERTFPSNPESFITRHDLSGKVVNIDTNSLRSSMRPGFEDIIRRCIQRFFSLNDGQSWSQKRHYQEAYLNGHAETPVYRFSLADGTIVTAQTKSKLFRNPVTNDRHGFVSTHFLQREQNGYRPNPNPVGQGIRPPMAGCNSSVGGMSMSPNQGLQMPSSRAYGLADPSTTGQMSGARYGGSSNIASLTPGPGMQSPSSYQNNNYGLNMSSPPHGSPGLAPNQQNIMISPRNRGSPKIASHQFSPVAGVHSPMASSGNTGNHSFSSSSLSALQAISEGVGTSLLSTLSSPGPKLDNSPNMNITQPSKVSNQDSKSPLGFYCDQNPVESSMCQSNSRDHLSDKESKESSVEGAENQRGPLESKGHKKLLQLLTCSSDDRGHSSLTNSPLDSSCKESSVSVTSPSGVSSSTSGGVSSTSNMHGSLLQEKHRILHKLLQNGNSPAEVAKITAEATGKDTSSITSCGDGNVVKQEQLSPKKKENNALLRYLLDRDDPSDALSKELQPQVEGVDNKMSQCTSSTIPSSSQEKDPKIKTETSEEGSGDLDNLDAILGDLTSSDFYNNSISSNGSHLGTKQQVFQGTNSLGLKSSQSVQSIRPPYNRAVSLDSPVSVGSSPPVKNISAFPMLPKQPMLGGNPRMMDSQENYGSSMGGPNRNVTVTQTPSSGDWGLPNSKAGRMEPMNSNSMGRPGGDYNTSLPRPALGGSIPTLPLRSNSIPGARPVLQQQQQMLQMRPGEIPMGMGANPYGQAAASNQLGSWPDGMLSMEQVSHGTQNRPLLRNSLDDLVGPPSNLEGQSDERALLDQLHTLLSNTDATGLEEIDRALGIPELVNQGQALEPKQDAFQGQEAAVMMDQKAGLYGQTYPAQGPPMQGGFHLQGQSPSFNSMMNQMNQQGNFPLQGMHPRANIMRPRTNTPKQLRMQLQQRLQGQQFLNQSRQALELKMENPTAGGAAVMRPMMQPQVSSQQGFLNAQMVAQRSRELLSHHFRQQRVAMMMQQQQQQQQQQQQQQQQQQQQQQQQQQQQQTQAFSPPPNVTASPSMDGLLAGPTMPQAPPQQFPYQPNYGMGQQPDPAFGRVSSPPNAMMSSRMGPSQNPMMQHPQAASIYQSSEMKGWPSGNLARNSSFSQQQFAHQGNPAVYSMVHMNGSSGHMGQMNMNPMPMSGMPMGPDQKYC

## O=C(Nc1ccccc1Cl)/C(Cl)=C(\Cl)[S+]([O-])c1ccccc1 (configuration not stated)
[1]
  IC50: 61.9 µM (inactive)

## CCCCCCCCCCCCCCCCn1cc[n+](C)c1
[2]
  AC50: 5.2 µM (active)
[3]
  IC50: 4.47 µM (active)
[4]
  AC50: 23.5 µM (active)

## O=C(NC1(O)C(=O)c2ccccc2C1=O)c1ccccc1
[5]
  IC50: 2.39 µM (active)

## Cc1cc(C)nc(/N=c2/ssnc2Cl)c1
[6]
  EC50: 43.1 µM (inactive)
[7]
  EC50: > 79.4 µM (not active)
